Biological target: T1, HGFR (Homo sapiens, UniProt P08581)
T1 construct: purchased Upstate 14-526
Experiment: HGFR continuous-coupled spectrophotometric assay
Format: biochemical
Details: at 50 nM; Table 5, library procedure 40; read-out: % inhibition (percent c-MET inhibition)

T1 sequence (P08581 974-1390 limits assumed): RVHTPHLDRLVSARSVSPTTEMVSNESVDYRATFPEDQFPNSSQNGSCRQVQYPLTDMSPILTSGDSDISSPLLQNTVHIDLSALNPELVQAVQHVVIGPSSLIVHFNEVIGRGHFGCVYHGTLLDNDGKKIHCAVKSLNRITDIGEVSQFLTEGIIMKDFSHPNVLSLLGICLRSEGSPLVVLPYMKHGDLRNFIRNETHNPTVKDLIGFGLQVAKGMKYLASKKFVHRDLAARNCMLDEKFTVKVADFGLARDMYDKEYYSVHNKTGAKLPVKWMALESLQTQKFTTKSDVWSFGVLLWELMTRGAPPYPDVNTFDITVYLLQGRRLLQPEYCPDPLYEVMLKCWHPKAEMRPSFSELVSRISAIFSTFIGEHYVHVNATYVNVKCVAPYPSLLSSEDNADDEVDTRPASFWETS

| inhibition at 0.05 µM | Compound |
| --- | --- |
| 73% | COCCNC(=O)c1ccc(-c2cnc(N)c(OC(C)c3c(Cl)ccc(F)c3Cl)c2)cc1 [Example L-79] |
| 60% | C[C@H](Oc1cc(-c2ccc(C(=O)N[C@@H](C)C3CCCCC3)cc2)cnc1N)c1c(Cl)ccc(F)c1Cl [Example L-80] |
| 67% | CC(Oc1cc(-c2ccc(C(=O)NC3(CO)CCCC3)cc2)cnc1N)c1c(Cl)ccc(F)c1Cl [Example L-81] |
| 74% | CC(C)[C@@H](CO)NC(=O)c1ccc(-c2cnc(N)c(O[C@@H](C)c3c(Cl)ccc(F)c3Cl)c2)cc1 [Example L-82] |
| 54% | C[C@H](Oc1cc(-c2ccc(C(=O)N[C@H](C)C3CCCCC3)cc2)cnc1N)c1c(Cl)ccc(F)c1Cl [Example L-83] |
| 67% | C[C@H](Oc1cc(-c2ccc(C(=O)NC[C@@H]3CCCC[C@H]3O)cc2)cnc1N)c1c(Cl)ccc(F)c1Cl [Example L-84] |
| 57% | CCOC(=O)C1CCN(C(=O)c2ccc(-c3cnc(N)c(OC(C)c4c(Cl)ccc(F)c4Cl)c3)cc2)CC1 [Example L-86] |
| 56% | CC(Oc1cc(-c2ccc(C(=O)NC3CCCCC3)cc2)cnc1N)c1c(Cl)ccc(F)c1Cl [Example L-87] |
| 90% | CC(Oc1cc(-c2ccc(C(=O)NCCCN3CCCC3)cc2)cnc1N)c1c(Cl)ccc(F)c1Cl [Example L-88] |
| 96% | CC(Oc1cc(-c2ccc(C(=O)N3CCN(c4ccncc4)CC3)cc2)cnc1N)c1c(Cl)ccc(F)c1Cl [Example L-89] |
| 85% | CC(Oc1cc(-c2ccc(C(=O)N3CCN(CCN(C)C)CC3)cc2)cnc1N)c1c(Cl)ccc(F)c1Cl [Example L-90] |
| 69% | C[C@H](Oc1cc(-c2ccc(C(=O)NC[C@H](O)c3ccccc3)cc2)cnc1N)c1c(Cl)ccc(F)c1Cl [Example L-91] |
| 64% | COc1cc(CCNC(=O)c2ccc(-c3cnc(N)c(OC(C)c4c(Cl)ccc(F)c4Cl)c3)cc2)ccc1O [Example L-92] |
| 62% | CC(NC(=O)c1ccc(-c2cnc(N)c(OC(C)c3c(Cl)ccc(F)c3Cl)c2)cc1)c1ccc(O)cc1 [Example L-93] |
| 51% | CC(Oc1cc(-c2ccc(C(=O)NCCc3cccc(C(F)(F)F)c3)cc2)cnc1N)c1c(Cl)ccc(F)c1Cl [Example L-94] |
| 61% | CC(Oc1cc(-c2ccc(C(=O)NC[C@@H]3CCCO3)cc2)cnc1N)c1c(Cl)ccc(F)c1Cl (stereo partly drawn) [Example L-96] |
| 60% | C[C@H](Oc1cc(-c2ccc(C(=O)NC[C@H]3CCCO3)cc2)cnc1N)c1c(Cl)ccc(F)c1Cl [Example L-97] |
| 83% | CC(Oc1cc(-c2ccc(C(=O)N(C)CC#N)cc2)cnc1N)c1c(Cl)ccc(F)c1Cl [Example L-99] |
| 79% | C[C@H](Oc1cc(-c2ccc(C(=O)NC[C@@H](C)O)cc2)cnc1N)c1c(Cl)ccc(F)c1Cl [Example L-101] |
| 82% | CNC(=O)c1ccc(-c2cnc(N)c(OC(C)c3c(Cl)ccc(F)c3Cl)c2)cc1 [Example L-102] |
| 91% | CC(Oc1cc(-c2ccc(C(=O)N3CCOCC3)cc2)cnc1N)c1c(Cl)ccc(F)c1Cl [Example L-103] |
| 89% | CC(Oc1cc(-c2ccc(C(=O)N(C)CCO)cc2)cnc1N)c1c(Cl)ccc(F)c1Cl [Example L-104] |
| 89% | CC(Oc1cc(-c2ccc(C(=O)NCCO)cc2)cnc1N)c1c(Cl)ccc(F)c1Cl [Example L-106] |
| 87% | CC(=O)N[C@@H]1CCN(C(=O)c2ccc(-c3cnc(N)c(OC(C)c4c(Cl)ccc(F)c4Cl)c3)cc2)C1 (stereo partly drawn) [Example L-107] |
| 70% | CCOCCCNC(=O)c1ccc(-c2cnc(N)c(OC(C)c3c(Cl)ccc(F)c3Cl)c2)cc1 [Example L-108] |

| inhibition at 0.05 µM | Compound |
| --- | --- |
| 76% | CC(Oc1cc(-c2ccc(C(=O)NCCC#N)cc2)cnc1N)c1c(Cl)ccc(F)c1Cl [Example L-109] |
| 71% | CC(C)NC(=O)c1ccc(-c2cnc(N)c(OC(C)c3c(Cl)ccc(F)c3Cl)c2)cc1 [Example L-110] |
| 71% | CC(Oc1cc(-c2ccc(C(=O)NCCc3ccncc3)cc2)cnc1N)c1c(Cl)ccc(F)c1Cl [Example L-111] |
| 85% | CC(Oc1cc(-c2ccc(C(=O)N(C)CCN(C)C)cc2)cnc1N)c1c(Cl)ccc(F)c1Cl [Example L-112] |
| 57% | COc1cc(CNC(=O)c2ccc(-c3cnc(N)c(OC(C)c4c(Cl)ccc(F)c4Cl)c3)cc2)cc(OC)c1 [Example L-113] |
| 63% | CCCCN(C)C(=O)c1ccc(-c2cnc(N)c(OC(C)c3c(Cl)ccc(F)c3Cl)c2)cc1 [Example L-115] |
| 62% | CC(C)OCCCNC(=O)c1ccc(-c2cnc(N)c(OC(C)c3c(Cl)ccc(F)c3Cl)c2)cc1 [Example L-116] |
| 60% | CC(C)CNC(=O)c1ccc(-c2cnc(N)c(OC(C)c3c(Cl)ccc(F)c3Cl)c2)cc1 [Example L-117] |
| 86% | CCN(CCN(C)C)C(=O)c1ccc(-c2cnc(N)c(OC(C)c3c(Cl)ccc(F)c3Cl)c2)cc1 [Example L-118] |
| 63% | CCOCCNC(=O)c1ccc(-c2cnc(N)c(OC(C)c3c(Cl)ccc(F)c3Cl)c2)cc1 [Example L-120] |
| 75% | CC(Oc1cc(-c2ccc(C(=O)NCc3ccc(CN(C)C)cc3)cc2)cnc1N)c1c(Cl)ccc(F)c1Cl [Example L-121] |
| 61% | CC(Oc1cc(-c2ccc(C(=O)NCC3CC3)cc2)cnc1N)c1c(Cl)ccc(F)c1Cl [Example L-122] |
| 80% | CC(Oc1cc(-c2ccc(C(=O)N3CCC(N(C)C)C3)cc2)cnc1N)c1c(Cl)ccc(F)c1Cl [Example L-123] |
| 77% | CC(Oc1cc(-c2ccc(C(=O)N(C)C)cc2)cnc1N)c1c(Cl)ccc(F)c1Cl [Example L-125] |
| 52% | CCN(C)C(=O)c1ccc(-c2cnc(N)c(OC(C)c3c(Cl)ccc(F)c3Cl)c2)cc1 [Example L-126] |
| 82% | CCCN1CCN(C(=O)c2ccc(-c3cnc(N)c(OC(C)c4c(Cl)ccc(F)c4Cl)c3)cc2)CC1 [Example L-129] |
| 60% | CC(Oc1cc(-c2ccc(C(=O)N(C)C3CCCC3)cc2)cnc1N)c1c(Cl)ccc(F)c1Cl [Example L-130] |
| 61% | Cc1ccnc(NC(=O)c2ccc(-c3cnc(N)c(OC(C)c4c(Cl)ccc(F)c4Cl)c3)cc2)c1 [Example L-131] |
| 68% | CC(Oc1cc(-c2ccc(C(=O)NCCc3cccnc3)cc2)cnc1N)c1c(Cl)ccc(F)c1Cl [Example L-133] |
| 76% | CC(Oc1cc(-c2ccc(C(=O)N3CCN(C(C)C)CC3)cc2)cnc1N)c1c(Cl)ccc(F)c1Cl [Example L-134] |
| 76% | COCCN1CCN(C(=O)c2ccc(-c3cnc(N)c(OC(C)c4c(Cl)ccc(F)c4Cl)c3)cc2)CC1 [Example L-135] |
| 61% | CC(Oc1cc(-c2ccc(C(=O)N3CCC(C(=O)c4ccccc4)CC3)cc2)cnc1N)c1c(Cl)ccc(F)c1Cl [Example L-136] |
| 78% | CCN(CC)CCN1CCN(C(=O)c2ccc(-c3cnc(N)c(OC(C)c4c(Cl)ccc(F)c4Cl)c3)cc2)CC1 [Example L-137] |
| 83% | CC(CN(C)C)NC(=O)c1ccc(-c2cnc(N)c(OC(C)c3c(Cl)ccc(F)c3Cl)c2)cc1 [Example L-138] |
